Series [1] addresses T1, human alpha 7-wt nAChR (Homo sapiens, UniProt P36544).
T1 construct: expressed in transfected cells
As to the kind of experiment: Ca2+ flux imaging (FDSS) (Protocol B). Type of series: cell-based. The settings on record: for EC50: potentiation of 100 μM choline, compounds 0.01 μM to 30 μM, read-out: a7-PAM-G_[33]_pEC50 pEC50 (converted); for Emax: efficacy of 100 μM choline defined as 100% in the absence of a PAM, read-out: a7-PAM-G_[33]_Eff_Curve_FI % Efficacy. The gist of the method:
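PAM activity was measured as FDSS calcium fluorescence in α7-wt nAChR cells loaded with 2 μM Fluo-4AM, with compounds at 0.01–30 μM added alongside or 10 min ahead of sub-maximal 100 μM choline. Peak responses were normalised to choline-only efficacy, and EC50 was taken at half-maximal effect.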
(In general: Calcium assays in cells follow changes in intracellular calcium, usually with a dye or a luminescent sensor.)

As usually defined, the melting point is the temperature of the solid-liquid transition.

T1 sequence (P36544 23-502): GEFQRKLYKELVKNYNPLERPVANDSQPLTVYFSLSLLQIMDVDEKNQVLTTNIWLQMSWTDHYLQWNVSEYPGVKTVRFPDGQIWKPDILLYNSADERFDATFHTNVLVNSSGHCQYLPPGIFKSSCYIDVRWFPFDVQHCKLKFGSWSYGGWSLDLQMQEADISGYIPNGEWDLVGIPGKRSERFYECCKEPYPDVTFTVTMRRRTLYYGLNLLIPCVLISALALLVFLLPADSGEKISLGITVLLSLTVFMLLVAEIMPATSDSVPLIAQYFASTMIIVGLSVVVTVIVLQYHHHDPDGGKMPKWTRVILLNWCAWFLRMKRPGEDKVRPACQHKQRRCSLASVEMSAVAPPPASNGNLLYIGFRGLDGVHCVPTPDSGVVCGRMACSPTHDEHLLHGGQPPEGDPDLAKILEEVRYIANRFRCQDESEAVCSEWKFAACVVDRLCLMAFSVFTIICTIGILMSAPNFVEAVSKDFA

`C[C@@H]1CN(c2nc(CNC(=O)CC3CC3)c(-c3ccncc3)s2)C[C@H](C)O1` [Compound 99, N-[[2-[(2R,6S)-2,6-dimethyl-4-morpholinyl]-5-(4-pyridinyl)-4-thiazolyl]methyl]-cyclopropaneacetamide]: the melting point came out at 178 °C. Besides, the EC50 in series [1] is 7.41 µM.
The corresponding values for `Cc1cc(-c2sc(N3CCOC(C)C3)nc2CNC(=O)c2ccc(F)cc2C)cc(C)n1` (single isomer, unassigned) [Compound 70, N-[[5-(2,6-dimethyl-4-pyridinyl)-2-[(2S*)-2-methyl-4-morpholinyl]-4-thiazolyl]methyl]-4-fluoro-2-methyl-benzamide] are 185 °C and 0.0813 µM.
In turn, `Cc1cc(-c2sc(N3C[C@@H](C)O[C@@H](C)C3)nc2CNC(=O)c2nocc2C)cc(C)n1` [Compound 174, N-[[2-[(2R,6S)-2,6-dimethyl-4-morpholinyl]-5-(2,6-dimethyl-4-pyridinyl)-4-thiazolyl]methyl]-4-methyl-3-isoxazolecarboxamide] displayed a melting point of 145 °C. In addition, in series [1], the Emax was found to be 956% and the EC50 was 0.537 µM.
Turning to `Cc1ccc(-c2sc(N3C[C@@H](C)O[C@@H](C)C3)nc2CNC(=O)c2cccc(Cl)c2)cn1` [Compound 122, 3-chloro-N-[[2-[(2R,6S)-2,6-dimethyl-4-morpholinyl]-5-(6-methyl-3-pyridinyl)-4-thiazolyl]methyl]-benzamide], the melting point came to 167 °C. Further, in series [1], the Emax is 473% and the EC50 was 1 µM.
For the molecule `Cc1cc(F)ccc1C(=O)NCc1nc(N2CCOCC2)sc1-c1ccncc1` [Compound 113, 4-fluoro-2-methyl-N-[[2-(4-morpholinyl)-5-(4-pyridinyl)-4-thiazolyl]methyl]-benzamide], the melting point was determined as 191 °C. Further, in series [1], the Emax came to 730% and the EC50 is 2.75 µM.
`Cc1cc(-c2sc(N3C[C@@H](C)O[C@@H](C)C3)nc2CNC(=O)CCC2CC2)cc(C)n1` [Compound 50, N-[[2-[(2R,6S)-2,6-dimethyl-4-morpholinyl]-5-(2,6-dimethyl-4-pyridinyl)-4-thiazolyl]methyl]-cyclopropanepropanamide]: the melting point came out at 168 °C. Also, in series [1], the Emax was determined as 953% and the EC50 was 0.0661 µM.
Take `Cc1cc(-c2sc(N3C[C@@H](C)O[C@@H](C)C3)nc2CNC(=O)c2cccc(F)c2)ccn1` [Compound 93, N-[[2-[(2R,6S)-2,6-dimethyl-4-morpholinyl]-5-(2-methyl-4-pyridinyl)-4-thiazolyl]methyl]-3-fluoro-benzamide]: the melting point is 153 °C. In series [1], the Emax came to 477% and the EC50 is 0.479 µM.
As for `Cc1cc(-c2sc(N3C[C@@H](C)O[C@@H](C)C3)nc2CNC(=O)c2ccon2)cc(C)n1` [Compound 180, N-[[2-[(2R,6S)-2,6-dimethyl-4-morpholinyl]-5-(2,6-dimethyl-4-pyridinyl)-4-thiazolyl]methyl]-3-isoxazolecarboxamide], the melting point is 179 °C. The EC50 in series [1] was 1.91 µM.
`Cc1cc(-c2sc(N3CC4CCC(C3)O4)nc2CNC(=O)c2conc2C)cc(C)n1` [Compound 211, N-[[5-(2,6-dimethyl-4-pyridinyl)-2-(8-oxa-3-azabicyclo[3.2.1]oct-3-yl)-4-thiazolyl]methyl]-3-methyl-4-isoxazolecarboxamide] displayed a melting point of 94 °C. Also, in series [1], the Emax was found to be 246% and the EC50 was 4.9 µM.
Take `Cc1cc(C(=O)NCc2nc(N3CCOCC3)sc2-c2ccncc2)no1` [Compound 111, 5-methyl-N-[[2-(4-morpholinyl)-5-(4-pyridinyl)-4-thiazolyl]methyl]-3-isoxazolecarboxamide]: the melting point amounted to 191 °C. The Emax in series [1] came to 812%.
In turn, `COCC(=O)NCc1nc(N2C[C@@H](C)O[C@@H](C)C2)sc1-c1cc(C)nc(C)c1` [Compound 37, N-[[2-[(2R,6S)-2,6-dimethyl-4-morpholinyl]-5-(2,6-dimethyl-4-pyridinyl)-4-thiazolyl]methyl]-2-methoxy-acetamide] returned a melting point of 150 °C. The Emax in series [1] is 293%.
In turn, `Cc1cc(-c2sc(N3C[C@@H](C)O[C@@H](C)C3)nc2CNC(=O)c2oc(C)nc2C)cc(C)n1` [Compound 159, N-[[2-[(2R,6S)-2,6-dimethyl-4-morpholinyl]-5-(2,6-dimethyl-4-pyridinyl)-4-thiazolyl]methyl]-2,4-dimethyl-5-oxazolecarboxamide] displayed a melting point of 193 °C. In series [1], the Emax was 704% and the EC50 was 9.77 µM.
Turning to `Cc1cc(-c2sc(N3C[C@@H](C)O[C@@H](C)C3)nc2CNC(=O)c2cc(C(C)(C)C)nn2C)cc(C)n1` [Compound 54, 3-(1,1-dimethylethyl)-N-[[2-[(2R,6S)-2,6-dimethyl-4-morpholinyl]-5-(2,6-dimethyl-4-pyridinyl)-4-thiazolyl]methyl]-1-methyl-1H-pyrazole-5-carboxamide], in series [1], the EC50 is 0.646 µM.
Same read-out and setting: the result for `Cc1cc(-c2sc(N3CC(C)OC(C)C3)nc2CNC(=O)CC2CC2)cc(C)n1` (racemic) [Compound 55, N-[[2-[2,6-dimethyl-4-morpholinyl]-5-(2,6-dimethyl-4-pyridinyl)-4-thiazolyl]methyl]-cyclopropaneacetamide] reads 0.794 µM.
As to `Cc1cc(-c2sc(N3C[C@@H](C)O[C@@H](C)C3)nc2CNC(=O)c2cccc(Cl)c2Cl)cc(C)n1` [Compound 26, 2,3-dichloro-N-[[2-[(2R,6S)-2,6-dimethyl-4-morpholinyl]-5-(2,6-dimethyl-4-pyridinyl)-4-thiazolyl]methyl]-benzamide], in series [1], the Emax turned out to be 631% and the EC50 is 0.141 µM.
On to `Cc1cc(-c2sc(N3C[C@@H](C)O[C@@H](C)C3)nc2CNC(=O)c2sc(C)nc2C)cc(C)n1` [Compound 29, N-[[2-[(2R,6S)-2,6-dimethyl-4-morpholinyl]-5-(2,6-dimethyl-4-pyridinyl)-4-thiazolyl]methyl]-2,4-dimethyl-5-thiazolecarboxamide], for which the Emax in series [1] is 593%.
Turning to `Cc1cc(-c2sc(N3C[C@@H](C)O[C@@H](C)C3)nc2CNC(=O)c2conc2C)cc(C2CC2)n1` [Compound 106, N-[[5-(2-cyclopropy1-6-methyl-4-pyridinyl)-2-[(2R,6S)-2,6-dimethyl-4-morpholinyl]-4-thiazolyl]methyl]-3-methyl-4-isoxazolecarboxamide], in series [1], the Emax was determined as 650% and the EC50 was 0.0813 µM.
The corresponding values for `Cc1cc(-c2sc(N3C[C@@H](C)O[C@@H](C)C3)nc2CNC(=O)c2ccccc2F)ccn1` [Compound 92, N-[[2-[(2R,6S)-2,6-dimethyl-4-morpholinyl]-5-(2-methyl-4-pyridinyl)-4-thiazolyl]methyl]-2-fluoro-benzamide] are 523% and 0.661 µM.
The matching figures for `Cc1cc(-c2sc(N3CCOC[C@@H]3C)nc2CNC(=O)c2conc2C)cc(C)n1` [Compound 185, N-[[5-(2,6-dimethyl-4-pyridinyl)-2-[(3S)-3-methyl-4-morpholinyl]-4-thiazolyl]methyl]-3-methyl-4-isoxazolecarboxamide]: 835% and 4.79 µM.
